In patent US10519099B2, “Cystobactamides” (priority 2014, dated 2019):
≈ marks a conversion by molar mass, not a printed value. Where two headings read alike, the source gives them in different places.

Experiments:
[1] = test system: Micrococcus luteus DSM-1790; test: MIC microdilution, Micrococcus luteus DSM-1790; format: cell-based
Experimental: (§1) Indicator strains used in susceptibility assays were either part of our strain collection or purchased from the German Collection of Microorgansims and Cell Cultures (DSMZ) or from the American Type Culture Collection (ATCC). E. coli strain WT and corresponding E. coli mutants were kindly provided by Prof. Dr. P. Heisig, Pharmaceutical Biology and Microbiology, University of Hamburg. E. coli strains JW0401-1 (WT) and Δtsx were obtained from the CGSC collection.
(§2) MIC values were determined in standardized microdilution assays. Overnight cultures were diluted in the appropriate growth medium to achieve an inoculum of 10^4-10^6 cfu/mL. Yeasts were grown in Myc medium (1% phytone peptone, 1% glucose, 50 mM HEPES, pH 7.0), S. pneumonia and Enterococcus spp. in tryptic soy broth (TSB: 1.7% peptone casein, 0.3% peptone soymeal, 0.25% glucose, 0.5% NaCl, 0.25% K2HPO4; pH 7.3); M. smegmatis in Middlebrook 7H9 medium supplemented with 10% Middlebrook ADC enrichment and 2 ml/I glycerol). All other listed bacteria were grown in Müller-Hinton broth (0.2% beef infusion solids, 1.75% casein hydrolysate, 0.15% starch, pH 7.4). […] Growth inhibition was assessed by visual inspection and the MIC was defined as the lowest concentration of compound that inhibited visible growth.

[2] = test system: Escherichia coli DSM-12242 (NAL^R); test: MIC microdilution, E. coli DSM-12242 (NAL^R); format: cell-based; details: DSM12242, read-out: MIC Escherichia coli DSM-12242 (NAL^R)
Experimental: as §1, §2

Bacillus subtilis DSM-10 = test: MIC microdilution, Bacillus subtilis DSM-10; format: cell-based
Experimental: as §1, §2

[3] = test system: Streptococcus pneumoniae DSM-20566; test: MIC microdilution, Streptococcus pneumoniae DSM-20566; format: cell-based
Experimental: as §1, §2

Pichia anomala DSM-6766 = test: MIC microdilution, Pichia anomala DSM-6766; format: cell-based; details: Hansenula anomala
Experimental: as §1, §2

[4] = test system: Burkholderia cenocepacia DSM-16553; test: MIC microdilution, Burkholderia cenocepacia DSM-16553; format: cell-based
Experimental: as §1, §2

[5] = test system: Pseudomonas aeruginosa DSM-24599; test: MIC microdilution, P. aeruginosa DSM-24599; format: cell-based; details: Pseudomonas aeruginosa
Experimental: as §1
(§3) MIC values were determined in standardized microdilution assays. Overnight cultures were diluted in the appropriate growth medium to achieve an inoculum of 10^4-10^6 cfu/mL. Yeasts were grown in Myc medium (1% phytone peptone, 1% glucose, 50 mM HEPES, pH 7.0), S. pneumonia and Enterococcus spp. in tryptic soy broth (TSB: 1.7% peptone casein, 0.3% peptone soymeal, 0.25% glucose, 0.5% NaCl, 0.25% K2HPO4; pH 7.3); M. smegmatis in Middlebrook 7H9 medium supplemented with 10% Middlebrook ADC enrichment and 2 ml/I glycerol). All other listed bacteria were grown in Müller-Hinton broth (0.2% beef infusion solids, 1.75% casein hydrolysate, 0.15% starch, pH 7.4). Cystobactamides and reference drugs were added directly to the cultures in sterile 96-well plates as duplicates and serial dilutions were prepared. Microorganisms were grown on a microplate shaker (750 rpm, 30-37° C., 18-48 h), except S. pneumonia, which was grown at non-shaking conditions (37° C., 5% CO2, 18 h). Growth inhibition was assessed by visual inspection and the MIC was defined as the lowest concentration of compound that inhibited visible growth.

[6] = test system: Escherichia coli ATCC25922; test: MIC microdilution, E. coli ATCC25922; format: cell-based
Experimental: as §1, §2

[7] = test system: Escherichia coli (TolC-deficient); test: MIC microdilution, E. coli (TolC-deficient); format: cell-based; details: Escherichia coli, read-out: MIC Escherichia coli (TolC-deficient)
Experimental: as §1, §2

[8] = test system: E. coli WT-3 [gyrA(S83L, D87G)]; test: MIC microdilution, E. coli WT-3 [gyrA(S83L, D87G)]; format: cell-based, Escherichia coli; details: Escherichia coli
Experimental: as §1, §3

[9] = test system: Klebsiella pneumoniae DSM-30104; test: MIC microdilution, Klebsiella pneumoniae DSM-30104; format: cell-based
Experimental: as §1, §2

E. coli JW0401-1 (WT) = test: MIC microdilution, E. coli JW0401-1 (WT); format: cell-based, Escherichia coli; details: Escherichia coli; Gram-negative set
Experimental: as §1, §2

[10] = test system: CHO-K1 (Chinese hamster ovary cell line); test: Cytotoxicity (MTT), CHO-K1 cell line; format: cell-based; details: Cricetulus griseus, CHO-K1, 120 h, 5 d incubation
Experimental: CHO-K1 cells were obtained from the DSMZ and were cultured under conditions recommended by the depositor. Cells were seeded at 6×10^3 cells/well of 96-well plates in 180 μl complete medium and treated with compounds in serial dilution after 2 h of equilibration. Each sample was tested in duplicate as well as the internal DMSO control. After 5 d incubation, 20 μl of 5 mg/ml MTT (thiazolyl blue tetrazolium bromide) in PBS was added per well and it was further incubated for 2 h at 37° C. The medium was then discarded and cells were washed with 100 μl PBS before adding 100 μl 2-propanol/10 N HCl (250:1) in order to dissolve formazan granules. The absorbance at 570 nm was measured using a microplate reader (Tecan Infinite M200Pro), and cell viability was expressed as percentage relative to the respective […] control.

[11] = test system: Enterobacter cloacae DSM-30054; test: MIC microdilution, Enterobacter cloacae DSM-30054; format: cell-based; details: Enterobacter cloacae, DSM30054, read-out: MIC Enterobacter cloacae DSM-30054
Experimental: Dr. P. Heisig, Pharmaceutical Biology and Microbiology, University of Hamburg.
Overnight cultures were diluted in the appropriate growth medium to achieve an inoculum of 10^4-10^6 cfu/mL. […] Cystobactamides and reference drugs were added directly to the cultures in sterile 96-well plates as duplicates and serial dilutions were prepared. Microorganisms were grown on a microplate shaker (750 rpm, 30-37° C., 18-48 h), except S. pneumonia, which was grown at non-shaking conditions (37° C., 5% CO2, 18 h). Growth inhibition was assessed by visual inspection and the MIC was defined as the lowest concentration of compound that inhibited visible growth.

E. coli Δtsx = test: MIC microdilution, E. coli Δtsx; format: cell-based, Escherichia coli; details: Gram-negative set
Experimental: as §1, §2

[12] = test system: Staphylococcus aureus ATCC29213; test: MIC microdilution, Staphylococcus aureus ATCC29213; format: cell-based; details: ATCC29213, read-out: MIC Staphylococcus aureus ATCC29213
Experimental: as §1, §2

E. coli gyrase = target: T1, E. coli gyrase (Escherichia coli, UniProt P0AES4+P0AES6); test: E. coli gyrase DNA supercoiling assay; format: biochemical; details: read-out: IC50 Ec gyrase (sc)
T1 construct: purchased Inspiralis, Norwich, UK
Experimental: To test the anti-gyrase activity of cystobactamides, commercial E. coli and P. aeruginosa gyrase supercoiling kits (Inspiralis, Norwich, UK) were used. For standard reactions 0.5 μg relaxed plasmid were mixed with 1 unit gyrase in 1× reaction buffer (see kit manual) and incubated for 30 min at 37° C. The reactions were quenched by the addition of DNA gel loading buffer containing 10% (w/v) SDS. The samples were separated on 1% (w/v) agarose gels and DNA was visualized using EtBr. All natural products stock solutions and dilutions were prepared in 100% DMSO and added to the supercoiling reactions giving a final DMSO concentration of 2% (v/v).

[13] = read-out: MIC E. coli WT-3 [gyrA(S83L, D87G)]
[14] = read-out: MIC Escherichia coli WT-3 [gyrA(S83L, D87G)]

SMILES: O=C(O)c1cn(C2CC2)c2cc(N3CCNCC3)c(F)cc2c1=O [CP, Ciprofloxacin, reference compound]
- MIC ([1]; DSM1790, larger panel, read-out: MIC Micrococcus luteus DSM-1790): 0.8 to 1.6 µg/mL (≈ 2.41 to 4.83 µM)
- MIC [2]: 0.05 µg/mL (≈ 0.151 µM)
- MIC (Bacillus subtilis DSM-10; DSM10, larger panel, read-out: MIC Bacillus subtilis DSM-10): 0.1 µg/mL (≈ 0.302 µM)
- MIC ([3]; DSM20566, larger panel, read-out: MIC Streptococcus pneumoniae DSM-20566): 0.8 to 1.6 µg/mL (≈ 2.41 to 4.83 µM)
- MIC (Pichia anomala DSM-6766; DSM6766, larger panel, read-out: MIC Pichia anomala DSM-6766): > 6.4 µg/mL
- MIC ([4]; DSM16553, larger panel, read-out: MIC Burkholderia cenocepacia DSM-16553): > 6.4 µg/mL
- MIC ([5]; DSM24599, larger panel, read-out: MIC Pseudomonas aeruginosa DSM-24599): > 6.4 µg/mL
- MIC ([6]; ATCC25922, larger panel, read-out: MIC Escherichia coli ATCC25922): 0.006 µg/mL (≈ 0.0181 µM)
- MIC [7]: 0.01 µg/mL (≈ 0.0302 µM)
- MIC [8, 13]: 0.8 µg/mL (≈ 2.41 µM)
- MIC [8, 14]: 0.8 to 1.6 µg/mL (≈ 2.41 to 4.83 µM)
- MIC ([9]; DSM30104, larger panel, read-out: MIC Klebsiella pneumoniae DSM-30104): 0.025 µg/mL (≈ 0.0754 µM)

SMILES: COC(C(N)=O)C(NC(=O)c1ccc(NC(=O)c2ccc([N+](=O)[O-])cc2)cc1)C(=O)Nc1ccc(C(=O)Nc2ccc(C(=O)Nc3ccc(C(=O)O)cc3OC(C)C)c(O)c2OC(C)C)cc1 (centres unmarked) [Cys 919-2]
- MIC (E. coli JW0401-1 (WT)): 1 µg/mL (≈ 1.09 µM)
- IC50 [10]: ~50 µM
- MIC ([1]; DSM1790, read-out: MIC Micrococcus luteus DSM-1790): 0.1 to 0.2 µg/mL (≈ 0.109 to 0.217 µM)
- MIC [2]: 1 to 2 µg/mL (≈ 1.09 to 2.17 µM)
- MIC (Bacillus subtilis DSM-10; DSM10, read-out: MIC Bacillus subtilis DSM-10): 0.1 µg/mL (≈ 0.109 µM)
- MIC [11]: > 64 µg/mL
- MIC ([3]; DSM20566, read-out: MIC Streptococcus pneumoniae DSM-20566): 0.1 µg/mL (≈ 0.109 µM)
- MIC (Pichia anomala DSM-6766; DSM6766, read-out: MIC Pichia anomala DSM-6766): > 64 µg/mL
- MIC ([4]; DSM16553, read-out: MIC Burkholderia cenocepacia DSM-16553): > 64 µg/mL
- MIC ([5]; DSM24599, read-out: MIC Pseudomonas aeruginosa DSM-24599): > 64 µg/mL
- MIC ([6]; ATCC25922, read-out: MIC Escherichia coli ATCC25922): 0.5 µg/mL (≈ 0.544 µM)
- MIC [8, 13]: 64 µg/mL (≈ 69.6 µM)
- MIC [8, 14]: 16 to 32 µg/mL (≈ 17.4 to 34.8 µM)
- MIC ([9]; DSM30104, read-out: MIC Klebsiella pneumoniae DSM-30104): > 64 µg/mL
- MIC E. coli Δtsx (E. coli Δtsx): 1 µg/mL (≈ 1.09 µM)
- MIC [12]: 0.1 µg/mL (≈ 0.109 µM)
- IC50 (E. coli gyrase): 0.67 µM
